Publication PMC9248040 (RSC Advances, 2022)

Experiments:
Assay type in all cases: biochemical
Aβ1–42 (amyloid-β 1-42) = Aβ1–42 (amyloid-β 1-42) (Homo sapiens, UniProt P05067); assay: fluorescent-probe fibril aggregation inhibition kit assay
[1] = biological target: T1, MAO-B (monoamine oxidase-B) (Homo sapiens, UniProt P27338); assay: fluorometric OxiRed-probe kit inhibition assay
T1 sequence (P27338 2-520): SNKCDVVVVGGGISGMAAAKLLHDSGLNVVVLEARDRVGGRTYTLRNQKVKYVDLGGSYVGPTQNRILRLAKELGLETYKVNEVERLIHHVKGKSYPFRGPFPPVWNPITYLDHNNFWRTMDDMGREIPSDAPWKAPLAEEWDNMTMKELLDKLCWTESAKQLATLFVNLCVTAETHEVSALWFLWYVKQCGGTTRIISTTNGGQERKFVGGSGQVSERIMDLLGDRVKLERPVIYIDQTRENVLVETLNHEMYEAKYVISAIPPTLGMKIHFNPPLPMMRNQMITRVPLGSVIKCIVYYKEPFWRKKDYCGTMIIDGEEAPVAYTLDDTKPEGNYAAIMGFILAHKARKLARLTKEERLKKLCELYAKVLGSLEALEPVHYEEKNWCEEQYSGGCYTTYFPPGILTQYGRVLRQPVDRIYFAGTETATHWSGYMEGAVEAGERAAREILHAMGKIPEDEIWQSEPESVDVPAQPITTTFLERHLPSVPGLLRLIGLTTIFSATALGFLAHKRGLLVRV

BACE1 (β-secretase) = BACE1 (β-secretase) (Homo sapiens, UniProt P56817); assay: fluorescence kit substrate-cleavage inhibition assay
BACE1 (β-secretase), sequence (P56817 46-457): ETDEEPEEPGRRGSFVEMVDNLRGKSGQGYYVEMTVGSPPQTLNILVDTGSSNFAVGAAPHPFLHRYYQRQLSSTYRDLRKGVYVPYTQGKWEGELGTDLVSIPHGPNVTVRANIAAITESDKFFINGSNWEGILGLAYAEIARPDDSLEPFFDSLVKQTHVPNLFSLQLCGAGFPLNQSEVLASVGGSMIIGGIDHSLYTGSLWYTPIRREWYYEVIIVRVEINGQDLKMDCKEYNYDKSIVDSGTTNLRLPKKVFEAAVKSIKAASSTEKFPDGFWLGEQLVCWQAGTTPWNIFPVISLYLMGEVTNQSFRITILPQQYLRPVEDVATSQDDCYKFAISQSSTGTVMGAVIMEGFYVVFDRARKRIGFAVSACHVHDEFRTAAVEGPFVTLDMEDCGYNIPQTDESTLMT

Aβ1–42 (amyloid-β 1-42), sequence (P05067 672-713): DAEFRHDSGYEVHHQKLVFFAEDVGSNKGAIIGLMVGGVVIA

Row | SMILES | IC50 (Aβ1–42 (amyloid-β 1-42)) [µM] | IC50 [1] [µM] | IC50 (BACE1 (β-secretase)) [µM]
1 | COc1cc(/C=C/C(=O)NCCc2ccc(O)c(OC)c2)ccc1O [compound 1, N-trans-feruloyl-3-methoxytyramine] | 0.874 | 2.07 | 15.7
2 | COc1cc(/C=C/C(=O)NCCc2ccc(O)cc2)ccc1O [compound 2, N-trans-feruloyltyramine] | 3.83 | 7.15 | 37

The remaining lines, values ahead:

Row | IC50 (Aβ1–42 (amyloid-β 1-42)) [µM] | IC50 [1] [µM] | IC50 (BACE1 (β-secretase)) [µM] | SMILES
3 | 39.8 | 18 | 110 | COc1cc(/C=C/C(=O)NC[C@@H](O)c2ccc(O)cc2)ccc1O [compound 4, S-(−)-N-trans-feruloyloctopamine]
4 | 7.63 | 4.43 | 16.4 | COc1cc(/C=C/C(=O)NC[C@@H](OC)c2ccc(O)cc2)ccc1O [compound 7, S-(−)-3-(4-hydroxy-3-methoxyphenyl)-N-[2-(4-hydroxyphenyl)-methoxyethyl]acrylamide]
5 | 20.2 | 8.75 | 34.1 | O=C(/C=C/c1ccc(O)c(O)c1)NCCc1ccc(O)cc1 [compound 6, N-trans-caffeoyltyramine]
